For data set [1], the system named is human colorectal carcinoma (HCT-116). The data set can be described thus: MTT cytotoxicity assay, HCT-116. Type of data set: cell-based. The following applies: 48 h, mean ± SD. How it is done:
(§1) The cells of human liver carcinoma (HepG2), human breast adenocarcinoma (MCF-7), human colorectal carcinoma (HCT-116), and human lung carcinoma (A549) were purchased from the American Type Culture Collection (Rockville, MD). All cells were maintained in a Dulbecco’s modified Eagle’s medium (DMEM), which was supplemented with 10% of heat-inactivated fetal bovine serum (FBS) and 100 U/mL penicillin and streptomycin each. The cells were grown at 37 °C in a humidified atmosphere of 5% CO2.
(§2) The cytotoxicity activities on the human liver carcinoma (HepG2), human breast adenocarcinoma (MCF-7), human colorectal carcinoma (HCT-116), and human lung carcinoma (A549) cell lines were estimated employing the 3-(4,5-dimethyl-2-thiazolyl)-2,5-diphenyl-2H-tetrazolium bromide (MTT) assay, which was grounded on the reduction of the tetrazolium salt by mitochondrial dehydrogenases in viable cells.[51],[52] The cells were dispensed in a 96-well sterile microplate (3 × 10^4 cells/well), followed by their incubation at 37 °C with a series of different concentrations of 10 μL of each compound or doxorubicin (positive control, in DMSO) for 48 h in a serum-free medium prior to the MTT assay. Subsequently, the media were carefully removed, and 40 μL of MTT (2.5 mg/mL) was added to each well and then incubated for an additional 4 h. Purple formazan dye crystals were solubilized by the addition of 200 μL of DMSO. The absorbance was measured at 570 nm using a SpectraMax Paradigm Multi-Mode microplate reader. The relative cell viability was expressed as the mean percentage of viable cells relative to the untreated control cells. All experiments were conducted in triplicate and were repeated on three different days. All of the values were represented as mean ± standard deviation (SD). The IC50s were determined by the SPSS probit analysis software program (SPSS Inc., Chicago, IL).
Background: Tetrazolium dyes change colour on reduction, which living cells bring about.

In data set [2] the test system is human lung carcinoma (A549). The data set can be described thus: MTT cytotoxicity assay, A549. Type of data set: cell-based. The following applies: 48 h, mean ± SD. How it is done:
as §1, §2

Data set [3] concerns human breast adenocarcinoma (MCF-7). Description: MTT cytotoxicity assay, MCF-7. Type of data set: cell-based. The following applies: MCF7, 48 h, mean ± SD. How it is done: as §1, §2
In data set [4] the test system is human liver carcinoma (HepG2). Description: MTT cytotoxicity assay, HepG2. Type of data set: cell-based. The settings on record: 48 h, mean ± SD. Here is the method:
as §1, §2

Take `COc1ccc(Nc2n[nH]c(N=Cc3c[nH]c4ccccc34)c2C(N)=O)cc1` [7c, 5-((1H-Indol-3-yl)methyleneamino)-3-(4-methoxyphenylamino)-1H-pyrazole-4-carboxamide]: the melting point was in the range of 260 to 262 °C. The IC50 in data set [1] was determined as 31.9 ± 3.8 µM. Besides, the IC50 in data set [2] worked out at 43.4 ± 4.2 µM. This compound displayed an IC50 in data set [3] of 22.2 ± 3.3 µM. The IC50 in data set [4] worked out at 35.8 ± 3.9 µM.

As to `COc1ccc(Nc2n[nH]c(N=Cc3c[nH]c4ccccc34)c2C(=O)Nc2ccccc2)cc1` [7d, 5-((1H-Indol-3-yl)methyleneamino)-3-(4-methoxyphenylamino)-N-phenyl-1H-pyrazole-4-carboxamide], the IC50 in data set [1] was 25.3 ± 3.5 µM; in data set [2], 58.7 ± 4.2 µM; in data set [3], 17.4 ± 2.3 µM; in data set [4], 27.2 ± 3.5 µM.

`CCN1C(=O)C(=Nc2[nH]nc(Nc3ccc(OC)cc3)c2C(N)=O)c2ccccc21` [5h, 5-(1-Ethyl-2-oxoindolin-3-ylideneamino)-3-(4-methoxyphenylamino)-1H-pyrazole-4-carboxamide] came in with a melting point of 269 to 271 °C. In data set [1], this compound had an IC50 of 25.7 ± 4.3 µM. For the same compound, the IC50 in data set [2] was determined as 41.9 ± 3.9 µM. This compound had an IC50 in data set [3] of 25.4 ± 3.9 µM. Further, the 50% inhibitory concentration (IC50) in data set [4] stood at 28.2 ± 3.5 µM.

As to `CN1C(=O)C(=Nc2[nH]nc(Nc3ccccc3)c2C(=O)Nc2ccccc2)c2ccccc21` [5a, 5-(1-Methyl-2-oxoindolin-3-ylideneamino)-N-phenyl-3-(phenylamino)-1H-pyrazole-4-carboxamide], the IC50 in data set [1] turned out to be 25.7 ± 3.5 µM; in data set [2], 42.8 ± 4.2 µM; in data set [3], 28.3 ± 3.5 µM; in data set [4] it was 27.6 ± 3.1 µM.

The compound `COc1ccc(Nc2n[nH]c(N=C3C(=O)N(C)c4ccccc43)c2C(N)=O)cc1` [5c, 3-(4-Methoxyphenylamino)-5-(1-methyl-2-oxoindolin-3-ylideneamino)-1H-pyrazole-4-carboxamide] gave a melting point of 265 to 267 °C. Further, the IC50 in data set [1] came to 39.5 ± 4.5 µM. The same compound returned a 50% inhibitory concentration (IC50) in data set [2] of 40.7 ± 4.1 µM. This compound gave an IC50 in data set [3] of 22 ± 3.5 µM. This compound also showed an IC50 in data set [4] of 32.8 ± 3.8 µM.

Turning to `CCN1C(=O)C(=Nc2[nH]nc(Nc3ccc(OC)cc3)c2C(=O)Nc2ccccc2)c2ccccc21` [5i, 5-(1-Ethyl-2-oxoindolin-3-ylideneamino)-3-(4-methoxyphenylamino)-N-phenyl-1H-pyrazole-4-carboxamide], the IC50 in data set [1] was 53.9 ± 5.7 µM; in data set [2] it was 47.8 ± 4.5 µM; in data set [3] it was 30.1 ± 4.2 µM; in data set [4] it was 26.7 ± 3.1 µM.

Consider `COc1ccc(Nc2n[nH]c(N=C3C(=O)N(C)c4ccccc43)c2C(=O)Nc2ccc(C)cc2)cc1` [5e, 3-(4-Methoxyphenylamino)-5-(1-methyl-2-oxoindolin-3-ylideneamino)-N-(4-methylphenyl)-1H-pyrazole-4-carboxamide], for which the IC50 turned out to be 39.9 ± 4.2 µM in data set [1], 77.7 ± 5.6 µM in data set [2], 61.8 ± 5.1 µM in data set [3] and 32 ± 3.9 µM in data set [4].

In the case of `COc1ccc(Nc2n[nH]c(N=C3C(=O)N(C)c4ccccc43)c2C(=O)Nc2ccccc2)cc1` [5d, 3-(4-Methoxyphenylamino)-5-(1-methyl-2-oxoindolin-3-ylideneamino)-N-phenyl-1H-pyrazole-4-carboxamide], the IC50 was found to be 54.2 ± 5.5 µM in data set [1], 56 ± 4.1 µM in data set [2], 46.4 ± 4.5 µM in data set [3] and 34.8 ± 3.9 µM in data set [4].

For `CCN1C(=O)C(=Nc2[nH]nc(Nc3ccc(OC)cc3)c2C(=O)Nc2ccc(C)cc2)c2ccccc21` [5j, 5-(1-Ethyl-2-oxoindolin-3-ylideneamino)-3-(4-methoxyphenylamino)-N-(4-methylphenyl)-1H-pyrazole-4-carboxamide], the IC50 in data set [1] came out at 38.9 ± 4.1 µM; in data set [2], 57 ± 4.9 µM; in data set [3] it was 63.7 ± 5.5 µM; in data set [4], 24.4 ± 2.9 µM.

On to `COc1cccc2c1C(=O)c1c(O)c3c(c(O)c1C2=O)C[C@@](O)(C(=O)CO)C[C@@H]3O[C@H]1C[C@H](N)[C@H](O)[C@H](C)O1` [doxorubicin, reference compound], for which the concentration for half-maximal inhibition (IC50) in data set [1] was 40 ± 3.9 µM; in data set [2], 58.1 ± 4.1 µM; in data set [3] it was 64.8 ± 4.1 µM; in data set [4], 24.7 ± 3.2 µM.

As to `CCN1C(=O)C(=Nc2[nH]nc(Nc3ccccc3)c2C(=O)Nc2ccccc2)c2ccccc21` [5f, 5-(1-Ethyl-2-oxoindolin-3-ylideneamino)-N-phenyl-3-(phenylamino)-1H-pyrazole-4-carboxamide], the IC50 in data set [1] came out at 28.9 ± 3.9 µM; in data set [2], 52.9 ± 4.5 µM; in data set [3] it was 42.1 ± 4.7 µM; in data set [4], 23.7 ± 3.1 µM.

Consider `CCN1C(=O)C(=Nc2[nH]nc(Nc3ccccc3)c2C(=O)Nc2ccc(C)cc2)c2ccccc21` [5g, 5-(1-Ethyl-2-oxoindolin-3-ylideneamino)-3-(phenylamino)-N-(4-methylphenyl)-1H-pyrazole-4-carboxamide], for which the IC50 came to 35.7 ± 3.9 µM in data set [1], 46.8 ± 5.3 µM in data set [2], 54 ± 4.9 µM in data set [3] and 27.8 ± 3.5 µM in data set [4].

Consider `COc1ccc(Nc2n[nH]c(N=Cc3c[nH]c4ccccc34)c2C(=O)Nc2ccc(C)cc2)cc1` [7e, 5-((1H-Indol-3-yl)methyleneamino)-3-(4-methoxyphenylamino)-N-(4-methylphenyl)-1H-pyrazole-4-carboxamide], for which the IC50 stood at 37.4 ± 4.1 µM in data set [1], 40.8 ± 4.3 µM in data set [2], 16.2 ± 2.3 µM in data set [3] and 25.8 ± 3.5 µM in data set [4].

As for `Cc1ccc(NC(=O)c2c(Nc3ccccc3)n[nH]c2N=C2C(=O)N(C)c3ccccc32)cc1` [5b, 5-(1-Methyl-2-oxoindolin-3-ylideneamino)-3-(phenylamino)-N-(4-methylphenyl)-1H-pyrazole-4-carboxamide], the half-maximal inhibitory concentration (IC50) in data set [1] turned out to be 28.1 ± 3.5 µM; in data set [2] it was 46.7 ± 4.9 µM; in data set [3], 48 ± 5.1 µM; in data set [4], 37.1 ± 4.3 µM.

By melting point is commonly meant the temperature of the solid-liquid transition. The IC50 is the concentration that gives 50% inhibition. The low end stands for inhibition by little substance, the high end for a need for much substance.

For the origin of these results see PMC8154124, “Design, Synthesis, Anticancer Evaluation, Enzymatic Assays, and a Molecular Modeling Study of Novel Pyrazole–Indole Hybrids” (ACS Omega, 2021).
